Source: BindingDB's records for doi:10.1021/jm00087a006 (University of Michigan, 1992)
Positions of bridges follow the written chain, without caps; N, C: chain ends. Non-standard residues stand in square brackets, D forms with d. Residues, ends and D or L forms follow the SMILES beside them. Phe(4-NO2) = N[C@@H](Cc1ccc([N+](=O)[O-])cc1)C(=O)O; Phe(4-tBu) = CC(C)(C)c1ccc(C[C@H](N)C(=O)O)cc1; Phe(4-Cl) = N[C@@H](Cc1ccc(Cl)cc1)C(=O)O; Phe(3-F) = N[C@@H](Cc1cccc(F)c1)C(=O)O; Phe(4-F) = N[C@@H](Cc1ccc(F)cc1)C(=O)O; Phe(4-Me) = Cc1ccc(C[C@H](N)C(=O)O)cc1; Phe(2-F) = N[C@@H](Cc1ccccc1F)C(=O)O; mTyr = N[C@@H](Cc1cccc(O)c1)C(=O)O; Pen = CC(C)(S)[C@H](N)C(=O)O

Experiments:
[1] = Compound was tested for the inhibition of [3H]- [D-Pen2, D-Pen5]-enkephalin (DPDPE) binding to Opioid receptor delta 1 in guinea pig brain homogenates
[2] = as above; remark: listed apart in the source
[3] = Compound was tested for the inhibition of [3H]- [D-Pen2, D-Pen5]-enkephalin (DPDPE) binding to opioid receptor delta in guinea pig brain homogenates

Compound | Ki [1] [nM] | Ki [2] [nM] | Ki [3] [nM]
CC1(C)SSC[C@H](NC(=O)[C@@H](N)Cc2ccc(O)cc2)C(=O)N[C@@H](Cc2ccc(O)cc2)C(=O)N[C@@H]1C(=O)O (H-YCY[Pen]-OH; disulfide 2-4) | 26 |  | 
CC1(C)SSC[C@H](NC(=O)[C@@H](N)Cc2ccc(O)cc2)C(=O)N[C@@H](Cc2ccccc2F)C(=O)N[C@@H]1C(=O)O (H-YC[Phe(2-F)][Pen]-OH; disulfide 2-4) |  | 3.3 | 
CC1(C)SSC[C@H](NC(=O)[C@@H](N)Cc2ccc(O)cc2)C(=O)N[C@@H](Cc2cccc(F)c2)C(=O)N[C@@H]1C(=O)O (H-YC[Phe(3-F)][Pen]-OH; disulfide 2-4) |  | 2.9 | 
CC1(C)SSC[C@H](NC(=O)[C@@H](N)Cc2ccc(O)cc2)C(=O)N[C@@H](Cc2ccc(Cl)cc2)C(=O)N[C@@H]1C(=O)O (H-YC[Phe(4-Cl)][Pen]-OH; disulfide 2-4) |  | 0.98 | 
CC1(C)SSC[C@H](NC(=O)[C@@H](N)Cc2ccc(O)cc2)C(=O)N[C@@H](Cc2ccc(F)cc2)C(=O)N[C@@H]1C(=O)O (H-YC[Phe(4-F)][Pen]-OH; disulfide 2-4) | 1.1 |  | 
Cc1ccc(C[C@@H]2NC(=O)[C@@H](NC(=O)[C@@H](N)Cc3ccc(O)cc3)CSSC(C)(C)[C@@H](C(=O)O)NC2=O)cc1 (H-YC[Phe(4-Me)][Pen]-OH; disulfide 2-4) |  | 5.4 | 
CC1(C)SSC[C@H](NC(=O)[C@@H](N)Cc2ccc(O)cc2)C(=O)N[C@@H](Cc2ccc([N+](=O)[O-])cc2)C(=O)N[C@@H]1C(=O)O (H-YC[Phe(4-NO2)][Pen]-OH; disulfide 2-4) | 1.7 |  | 
CC(C)(C)c1ccc(C[C@@H]2NC(=O)[C@@H](NC(=O)[C@@H](N)Cc3ccc(O)cc3)CSSC(C)(C)[C@@H](C(=O)O)NC2=O)cc1 (H-YC[Phe(4-tBu)][Pen]-OH; disulfide 2-4) | 648 |  | 37
CC1(C)SSC[C@H](NC(=O)[C@@H](N)Cc2ccc(O)cc2)C(=O)N[C@@H](Cc2cccc(O)c2)C(=O)N[C@@H]1C(=O)O (H-YC[mTyr][Pen]-OH; disulfide 2-4) | 148 |  | 9.3
